This note sets out measurements from patent US9783536B2, “Nitrogen-containing heterocyclic compound or salt thereof” (FUJIFILM Corporation, priority 2013, dated 2017).

The target of assay [1] is T1, GST fusion human ERK2 protein (Homo sapiens, UniProt P28482).
T1 construct: purchased Carna Biosciences, Inc; host or cells: E. coli expression system
Kind of assay: ERK2 enzyme assay (2). In kind it is biochemical. Conditions: ERK2 enzyme assay (2); read-out: ERK2 enzyme inhibitory activity (2). The gist of the method:
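GST-tagged human ERK2 expressed in E. coli (1.25 nmol/L) was preincubated with compound for 15 min at room temperature in pH 7.5 Hepes buffer with MgCl2, DTT and Brij35. Reaction with FL-Peptide 8 (final 4.25 μmol/L) and ATP (final 1 mmol/L) ran 120 min at 25 °C; EDTA stopped it, and phosphorylated peptide was quantified by mobility-shift separation to derive IC50.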

Another assay has as its target T2, human PI3Kα protein (Homo sapiens, UniProt P42336).
T2 construct: purchased Carna Biosciences, Inc; host or cells: baculovirus expression system
Kind of assay: PI3Kα enzyme assay (ADP-Glo). In kind it is biochemical. The note with it: read-out: PI3Kα enzyme inhibitory activity. The procedure, abridged:
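Biotinylated human PI3Kα (baculovirus-expressed, 4.5 nmol/L) pre-incubated 15 min with compound in Tris-HCl pH 7.5, MgCl2, BSA; reaction 60 min at 25° C with 50 μmol/L PIP2 and 100 μmol/L ATP final. ADP quantified by ADP-Glo luminescence; IC50 calculated.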
Background: ADP-Glo turns the ADP formed in a reaction into a luminescent signal.

T2 sequence (P42336 whole entry): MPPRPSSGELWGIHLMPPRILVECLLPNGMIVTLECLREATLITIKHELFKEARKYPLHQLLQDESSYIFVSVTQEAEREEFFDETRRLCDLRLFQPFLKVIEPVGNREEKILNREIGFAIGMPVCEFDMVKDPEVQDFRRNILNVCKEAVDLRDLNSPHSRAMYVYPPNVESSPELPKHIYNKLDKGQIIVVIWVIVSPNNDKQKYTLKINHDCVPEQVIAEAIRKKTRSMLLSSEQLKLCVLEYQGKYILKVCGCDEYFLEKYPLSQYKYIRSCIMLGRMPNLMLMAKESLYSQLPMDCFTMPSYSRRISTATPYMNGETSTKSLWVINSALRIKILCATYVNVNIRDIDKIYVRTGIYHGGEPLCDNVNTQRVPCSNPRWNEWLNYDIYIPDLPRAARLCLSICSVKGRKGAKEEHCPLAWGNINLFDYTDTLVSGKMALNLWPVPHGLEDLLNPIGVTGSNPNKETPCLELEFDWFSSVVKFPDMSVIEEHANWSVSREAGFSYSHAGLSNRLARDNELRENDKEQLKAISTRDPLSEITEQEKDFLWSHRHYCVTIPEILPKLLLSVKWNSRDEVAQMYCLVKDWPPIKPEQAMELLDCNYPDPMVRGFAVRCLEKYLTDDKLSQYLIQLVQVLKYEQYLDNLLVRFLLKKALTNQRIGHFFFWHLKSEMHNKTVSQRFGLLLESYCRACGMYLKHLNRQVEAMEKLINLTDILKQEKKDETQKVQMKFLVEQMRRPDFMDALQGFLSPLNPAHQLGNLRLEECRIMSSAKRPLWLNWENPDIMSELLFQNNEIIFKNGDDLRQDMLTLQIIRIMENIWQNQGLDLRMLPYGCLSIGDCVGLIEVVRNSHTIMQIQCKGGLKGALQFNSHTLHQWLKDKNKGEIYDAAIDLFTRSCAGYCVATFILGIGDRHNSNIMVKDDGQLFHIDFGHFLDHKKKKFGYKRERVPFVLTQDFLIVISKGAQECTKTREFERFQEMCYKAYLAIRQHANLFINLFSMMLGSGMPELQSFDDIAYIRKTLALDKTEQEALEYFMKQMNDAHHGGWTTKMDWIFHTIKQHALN
T2 sequence (P27986 whole entry partner): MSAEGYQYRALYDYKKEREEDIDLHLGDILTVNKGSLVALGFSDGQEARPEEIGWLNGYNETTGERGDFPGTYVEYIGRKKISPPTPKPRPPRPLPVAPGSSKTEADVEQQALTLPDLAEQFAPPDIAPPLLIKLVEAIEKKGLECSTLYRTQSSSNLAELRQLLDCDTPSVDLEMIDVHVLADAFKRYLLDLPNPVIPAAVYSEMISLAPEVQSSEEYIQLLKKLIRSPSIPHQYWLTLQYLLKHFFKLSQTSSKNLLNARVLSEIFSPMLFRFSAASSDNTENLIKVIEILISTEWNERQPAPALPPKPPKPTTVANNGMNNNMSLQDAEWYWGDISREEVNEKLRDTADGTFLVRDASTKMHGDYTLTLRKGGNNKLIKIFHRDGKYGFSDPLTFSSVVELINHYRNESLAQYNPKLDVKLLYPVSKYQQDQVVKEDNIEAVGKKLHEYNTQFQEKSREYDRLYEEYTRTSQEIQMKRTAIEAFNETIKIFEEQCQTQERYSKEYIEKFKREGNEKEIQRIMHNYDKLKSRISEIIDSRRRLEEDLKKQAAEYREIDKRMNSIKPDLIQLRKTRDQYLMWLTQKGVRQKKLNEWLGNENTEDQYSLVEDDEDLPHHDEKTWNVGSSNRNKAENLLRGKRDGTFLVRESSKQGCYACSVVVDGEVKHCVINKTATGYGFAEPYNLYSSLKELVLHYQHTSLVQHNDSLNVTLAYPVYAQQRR
T1 sequence (P28482 whole entry, the tested form may be a part): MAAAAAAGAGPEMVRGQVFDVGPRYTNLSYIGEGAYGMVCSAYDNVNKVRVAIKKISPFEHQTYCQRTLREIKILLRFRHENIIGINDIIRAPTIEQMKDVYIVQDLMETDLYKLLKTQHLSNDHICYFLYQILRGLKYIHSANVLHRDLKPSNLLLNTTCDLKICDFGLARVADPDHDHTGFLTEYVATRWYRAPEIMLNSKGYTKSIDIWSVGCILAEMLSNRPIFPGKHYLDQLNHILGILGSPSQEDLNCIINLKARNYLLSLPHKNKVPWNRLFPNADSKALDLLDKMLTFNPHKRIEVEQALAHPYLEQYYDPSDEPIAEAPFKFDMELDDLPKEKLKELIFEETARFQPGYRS

Take `CC(C)c1cnnc(Nc2ccc3ncc(N4CCC4)cc3n2)c1` [Example 0847, 7-(Azetidin-1-yl)-N-(5-isopropylpyridazin-3-yl)-1,5-naphthyridine-2-amine]: the IC50 in assay [1] was under 1000 nM; at human PI3Kα protein it was 1000 to 10000 nM.
The matching figures for `Cc1nn(C)cc1-c1cnc2ccc(Nc3cc(C(C)C)no3)nc2c1` [Example 0848, N-(7-(1,3-dimethyl-1H-pyrazol-4-yl)-1,5-naphthyridin-2-yl)-3-isopropylisoxazole-5-amine]: 1000 to 10000 nM and 1000 to 10000 nM.
Taken in the same sequence, the figures for `Cc1nc2ccc(Nc3cc(C(C)C)cnn3)nc2cc1-c1cnn(C)c1` [Example 0849, N-(5-isopropylpyridazin-3-yl)-6-methyl-7-(1-methyl-1H-pyrazol-4-yl)-1,5-naphthyridine-2-amine] were under 1000 nM and 1000 to 10000 nM.
Taken in the same sequence, the figures for `Cc1c(-c2cnn(C)c2)cnc2ccc(Nc3cc(C(C)C)cnn3)nc12` [Example 0850, N-(5-isopropylpyridazin-3-yl)-8-methyl-7-(1-methyl-1H-pyrazol-4-yl)-1,5-naphthyridine-2-amine] were under 1000 nM and under 1000 nM.
`Cc1nc2ccc(Nc3cc(C(C)C)cnn3)nc2cc1-c1cn(C)nc1C` [Example 0851, 7-(1,3-Dimethyl-1H-pyrazol-4-yl)-N-(5-isopropylpyridazin-3-yl)-6-methyl-1,5-naphthyridine-2-amine]: the IC50 in assay [1] was under 1000 nM; at human PI3Kα protein, 1000 to 10000 nM.
The matching figures for `Cc1nn(C)cc1-c1cnc2ccc(Nc3cc(C(C)C)cnn3)nc2c1C` [Example 0852, 7-(1,3-Dimethyl-1H-pyrazol-4-yl)-N-(5-isopropylpyridazin-3-yl)-8-methyl-1,5-naphthyridine-2-amine]: under 1000 nM and under 1000 nM.
Taken in the same sequence, the figures for `COC1CN(c2cnc3ccc(Nc4cc(C(C)C)cnn4)nc3c2)C1` [Example 0853] were under 1000 nM and under 1000 nM.
Consider `CC(C)c1cnnc(Nc2ccc3ncc(N4CC(F)(F)C4)cc3n2)c1` [Example 0854], for which the IC50 (in assay [1]; on human PI3Kα protein) was under 1000 nM each time.
Take `CC(C)c1cnnc(Nc2ccc3ncc(N4CC5(COC5)C4)cc3n2)c1` [Example 0855]: the IC50 (in assay [1]; at human PI3Kα protein) was under 1000 nM in each case.
Take `CC(C)c1cnnc(Nc2ccc3ncc(N4CC5(CCO5)C4)cc3n2)c1` [Example 0856]: the IC50 in assay [1] is under 1000 nM; at human PI3Kα protein it was 1000 to 10000 nM.
As to `CC(C)c1cnnc(Nc2ccc3ncc(N4CCS(=O)(=O)CC4)cc3n2)c1` [Example 0857], the values for the IC50 (in assay [1]; at human PI3Kα protein) were under 1000 nM and 1000 to 10000 nM, respectively.
Taken in the same sequence, the figures for `CC(C)c1cnnc(Nc2ccc3ncc(N4CCC(F)(F)CC4)cc3n2)c1` [Example 0858] were under 1000 nM and 1000 to 10000 nM.
Regarding `COC1(C)CN(c2cnc3ccc(Nc4cc(C(C)C)cnn4)nc3c2)C1` [Example 0859], the IC50 is under 1000 nM in assay [1] and 1000 to 10000 nM at human PI3Kα protein.
The matching figures for `CC(C)c1cnnc(Nc2ccc3ncc(N4CC(Oc5ccccc5)C4)cc3n2)c1` [Example 0860]: 1000 to 10000 nM and 1000 to 10000 nM.
The matching figures for `CC(C)c1cnnc(Nc2ccc3ncc(N4CCN(S(C)(=O)=O)CC4)cc3n2)c1` [Example 0861]: under 1000 nM and under 1000 nM.
The matching figures for `CC(C)c1cnnc(Nc2ccc3ncc(N4CCC(=O)N(C)CC4)cc3n2)c1` [Example 0862]: under 1000 nM and under 1000 nM.
Consider `CC(C)OC1CN(c2cnc3ccc(Nc4cc(C(C)C)cnn4)nc3c2)C1` [Example 0863], for which the IC50 in assay [1] was under 1000 nM; at human PI3Kα protein, 1000 to 10000 nM.
Taken in the same sequence, the figures for `CC(C)c1cnnc(Nc2ccc3ncc(N4CC(OCCF)C4)cc3n2)c1` [Example 0864] were under 1000 nM and under 1000 nM.
The matching figures for `CC(C)c1cnnc(Nc2ccc3ncc(N4CC(OCC(F)(F)F)C4)cc3n2)c1` [Example 0865]: 1000 to 10000 nM and 1000 to 10000 nM.
Taken in the same sequence, the figures for `CC(C)c1cnnc(Nc2ccc3ncc(N4CC(NS(C)(=O)=O)C4)cc3n2)c1` [Example 0867] were under 1000 nM and under 1000 nM.
Regarding `CC(C)c1cnnc(Nc2ccc3ncc(N4CC(OCC(F)F)C4)cc3n2)c1` [Example 0868], the IC50 in assay [1] was under 1000 nM; at human PI3Kα protein, 1000 to 10000 nM.
Take `CC(C)c1cnnc(Nc2ccc3ncc(N4CC(OCC5CC5)C4)cc3n2)c1` [Example 0869]: the IC50 in assay [1] was under 1000 nM; at human PI3Kα protein, 1000 to 10000 nM.
The matching figures for `CCCCOC1CN(c2cnc3ccc(Nc4cc(C(C)C)cnn4)nc3c2)C1` [Example 0870]: 1000 to 10000 nM and 1000 to 10000 nM.
With `CC(C)c1cnnc(Nc2ccc3ncc(N4CCCN(C)CC4)cc3n2)c1` [Example 0871], the IC50 (in assay [1]; on human PI3Kα protein) was 1000 to 10000 nM in each case.
`CC(=O)N1CCN(c2cnc3ccc(Nc4cc(C(C)C)cnn4)nc3c2)CC1` [Example 0872]: the IC50 (in assay [1]; at human PI3Kα protein) was under 1000 nM throughout.
`CC(C)c1cnnc(Nc2ccc3ncc(N4C[C@@H](C)O[C@@H](C)C4)cc3n2)c1` [Example 0873]: the IC50 (in assay [1]; on human PI3Kα protein) was under 1000 nM throughout.
Take `COC[C@@H]1CCCN1c1cnc2ccc(Nc3cc(C(C)C)cnn3)nc2c1` [Example 0874]: the IC50 (in assay [1]; at human PI3Kα protein) was under 1000 nM in each case.
For `CC(C)c1cnnc(Nc2ccc3ncc(N4CCN(CC(F)(F)F)CC4)cc3n2)c1` [Example 0875], the IC50 in assay [1] is under 1000 nM; on human PI3Kα protein, 1000 to 10000 nM.
The matching figures for `CC(C)c1cnnc(Nc2ccc3ncccc3n2)c1` [Example 0876]: 1000 to 10000 nM and 1000 to 10000 nM.
For `CC(C)c1cnnc(Nc2ccc3ncc(NC4CCCCC4)cc3n2)c1` [Example 0877], the IC50 is 1000 to 10000 nM in assay [1] and under 1000 nM at human PI3Kα protein.
For the compound `CC(C)c1cnnc(Nc2ccc3ncc(NC4CCCC4)cc3n2)c1` [Example 0878], the values for the IC50 (in assay [1]; at human PI3Kα protein) were 1000 to 10000 nM and under 1000 nM, respectively.
`CC(C)c1cnnc(Nc2ccc3ncc(NC4CCC4)cc3n2)c1` [Example 0879]: the IC50 (in assay [1]; on human PI3Kα protein) was under 1000 nM throughout.
Turning to `CC(C)c1cnnc(Nc2ccc3ncc(C4=CCN(C(=O)OC(C)(C)C)CC4)cc3n2)c1` [Example 0880, tert-butyl 4-(6-((5-isopropylpyridazin-3-yl)amino)-1,5-naphthyridin-3-yl)-5,6-dihydropyridine-1(2H)-carboxylate], the IC50 (in assay [1]; on human PI3Kα protein) was under 1000 nM throughout.
As for `CC(C)c1cnnc(Nc2ccc3ncc(C4=CCNCC4)cc3n2)c1` [Example 0881, N-(5-isopropylpyridazin-3-yl)-7-(1,2,3,6-tetrahydropyridin-4-yl)-1,5-naphthyridine-2-amine], the IC50 was under 1000 nM in assay [1] and 1000 to 10000 nM at human PI3Kα protein.
Taken in the same sequence, the figures for `CC(=O)N1CC=C(c2cnc3ccc(Nc4cc(C(C)C)cnn4)nc3c2)CC1` [Example 0882, 1-(4-(6-((5-isopropylpyridazin-3-yl)amino)-1,5-naphthyridin-3-yl)-5,6-dihydropyridine-1(2H)-yl)ethanone] were under 1000 nM and under 1000 nM.
Taken in the same sequence, the figures for `CC(C)c1cnnc(Nc2ccc3ncc(C4=CCN(C(=O)N(C)C)CC4)cc3n2)c1` [Example 0883, 4-(6-((5-Isopropylpyridazin-3-yl)amino)-1,5-naphthyridin-3-yl)-N,N-dimethyl-5,6-dihydropyridine-1(2H)-carboxamide] were under 1000 nM and under 1000 nM.
For `CC(C)c1cnnc(Nc2ccc3ncc(C4=CCN(C)CC4)cc3n2)c1` [Example 0884, N-(5-isopropylpyridazin-3-yl)-7-(1-methyl-1,2,3,6-tetrahydropyridin-4-yl)-1,5-naphthyridine-2-amine], the results for the IC50 (in assay [1]; at human PI3Kα protein) were under 1000 nM and 1000 to 10000 nM, respectively.
For `Cc1nn(C)cc1-c1cnc2ccc(Nc3cc(C4(C)CC4)cnn3)nc2c1` [Example 0885, 7-(1,3-Dimethyl-1H-pyrazol-4-yl)-N-(5-(1-methylcyclopropyl)pyridazin-3-yl)-1,5-naphthyridine-2-amine], the IC50 (in assay [1]; at human PI3Kα protein) was under 1000 nM in each case.
Turning to `CC(C)c1cnnc(Nc2ccc3ncc(-c4cn(C)nc4Cl)cc3n2)c1` [Example 0886, 7-(3-Chloro-1-methyl-1H-pyrazol-4-yl)-N-(5-isopropylpyridazin-3-yl)-1,5-naphthyridine-2-amine], the IC50 (in assay [1]; on human PI3Kα protein) was under 1000 nM in each case.
`CC(C)c1cnnc(Nc2ccc3ncc(N4CCN(C)C(=O)C4)cc3n2)c1` [Example 0887]: the IC50 was 1000 to 10000 nM in assay [1] and under 1000 nM at human PI3Kα protein.
Take `CC(C)c1cnnc(Nc2ccc3ncc(NC4(C)CCC4)cc3n2)c1` [Example 0888]: the IC50 (in assay [1]; on human PI3Kα protein) was 1000 to 10000 nM in each case.
Consider `COCC1(Nc2cnc3ccc(Nc4cc(C(C)C)cnn4)nc3c2)CCC1` [Example 0889], for which the IC50 (in assay [1]; on human PI3Kα protein) was 10000 to 50000 nM each time.
Turning to `CC(C)c1cnnc(Nc2ccc3ncc(NC4CCOC4)cc3n2)c1` (stereo not shown) [Example 0890], the IC50 in assay [1] was 1000 to 10000 nM; on human PI3Kα protein, under 1000 nM.
For `CC(C)c1cnnc(Nc2ccc3ncc(NC4CN(C(=O)OC(C)(C)C)C4)cc3n2)c1` [Example 0891], the IC50 was under 1000 nM in assay [1] and 1000 to 10000 nM at human PI3Kα protein.
